Laboratory results reported in article PMC7782499, “Progerinin, an optimized progerin-lamin A binding inhibitor, ameliorates premature senescence phenotypes of Hutchinson-Gilford progeria syndrome” (Communications Biology, 2021).
Where “and” joins values, the source holds several entries; their conditions need not be identical. Equal values may be shown once.

How the values were obtained:
[1] = tested on: Lmna G609G/+ mouse; experiment: Grip strength test; format: in vivo; conditions: LMNA G609G/+ mice, 41-week-old, SLC-D011 for 6 weeks
Text: Fig. 4 Oral administration of SLC-D011 suppresses premature aging features. A Gross morphology of SLC-D011-treated (D011) mice at 8 weeks old. Body size of treated mouse was apparently larger than that of the untreated control (Con) mouse. B Oral administration of SLC-D011 increases body weights of Lmna^G609G/G609G mice. Compared with untreated control group, body weight of treated mouse was increased by ~35%, *p < 0.05. C Oral administration of SLC-D011 extends the life span of Lmna^G609G/G609G mouse. SLC-D011 in monoolein-based solution was treated by oral gavage (50 mg/kg, daily) from 5 weeks old. […] E Grip test of Lmna^G609G/+ mice at 41-week-old was performed after administration of SLC-D011 for 6 weeks. The test was repeated 10 times for each mouse (n > 4), **p < 0.001. Data are presented as mean ± SD. […] H Anti-aging effects of single treatment of SLC-D011 or lonafarnib were measured in HGPS patients-derived cells (AG11513, AG03199, AG11498, and AG03198, Coriell Cell Repositories). […] No unit is printed with them; the x axis reads Age (weeks). / Panel C: Ave=16.8 / Max=18 are printed beside the dashed curve of the control (Con). […]
For analysis of heart rate, mice were anesthetized with 2.5% isoflurane and monitored using LOGIQ E9 (GE Healthcare). […] Each estimate given corresponded to total reads measured ten times, excluding the minimum and the maximum from each group of animals.

[2] = biological target: T1, progerin (Mus musculus, UniProt P48678, DEL608-657); experiment: Western blot of progerin and H3K9me3 in tissue samples (lung, liver, kidney); format: in vivo; conditions: for H3K9me3 intensity / Progerin intensity: D011-treated LmnaG609G/+ mice
T1 construct: Lamin A/C and progerin amounts in tissue samples including lung, liver, and kidney; from tissue; host or cells: lung, liver and kidney of Lmna G609G/+ mice
T1 sequence (P48678 with tags, fused parts or gaps DEL608-657): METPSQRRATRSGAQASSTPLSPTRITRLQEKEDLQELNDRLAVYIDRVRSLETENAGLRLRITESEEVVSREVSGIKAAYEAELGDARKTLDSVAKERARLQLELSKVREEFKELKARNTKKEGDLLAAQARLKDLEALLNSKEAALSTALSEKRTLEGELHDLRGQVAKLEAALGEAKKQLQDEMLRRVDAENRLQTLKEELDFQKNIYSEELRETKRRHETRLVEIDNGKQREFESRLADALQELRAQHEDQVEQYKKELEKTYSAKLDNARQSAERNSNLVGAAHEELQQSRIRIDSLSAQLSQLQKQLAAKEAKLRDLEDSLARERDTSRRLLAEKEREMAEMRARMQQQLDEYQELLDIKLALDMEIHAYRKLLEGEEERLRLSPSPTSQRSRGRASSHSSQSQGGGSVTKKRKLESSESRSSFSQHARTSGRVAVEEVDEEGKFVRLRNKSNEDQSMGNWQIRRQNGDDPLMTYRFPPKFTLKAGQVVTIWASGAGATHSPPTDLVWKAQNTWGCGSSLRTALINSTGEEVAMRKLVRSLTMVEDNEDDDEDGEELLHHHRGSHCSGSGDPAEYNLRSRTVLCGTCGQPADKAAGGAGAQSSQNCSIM
Text: Fig. 4 Oral administration of SLC-D011 suppresses premature aging features. A Gross morphology of SLC-D011-treated (D011) mice at 8 weeks old. Body size of treated mouse was apparently larger than that of the untreated control (Con) mouse. B Oral administration of SLC-D011 increases body weights of Lmna^G609G/G609G mice. Compared with untreated control group, body weight of treated mouse was increased by ~35%, *p < 0.05. C Oral administration of SLC-D011 extends the life span of Lmna^G609G/G609G mouse. SLC-D011 in monoolein-based solution was treated by oral gavage (50 mg/kg, daily) from 5 weeks old. […] E Grip test of Lmna^G609G/+ mice at 41-week-old was performed after administration of SLC-D011 for 6 weeks. The test was repeated 10 times for each mouse (n > 4), **p < 0.001. Data are presented as mean ± SD. F Electrocardiographic analysis of Lmna^G609G/+ mice (untreated: n = 4; SLC-D011: n = 4) and Lmna^+/+ mice (n = 3) after treatment with SLC-D011 for 6 weeks (unpaired t test). Heart rate is shown as beats per minute (bpm). G Dental abnormalities in Lmna^G609G/+ mice (untreated: n = 4; SLC-D011: n = 5) and Lmna^+/+ mice (n = 4). […] Lower incisors of Lmna^G609G transgenic mice grow toward the palate because of malocclusion. Oral administration of SLC-D011 for 6 weeks alleviates dental abnormalities. H Anti-aging effects of single treatment of SLC-D011 or lonafarnib were measured in HGPS patients-derived cells (AG11513, AG03199, AG11498, and AG03198, Coriell Cell Repositories). Single treatment of SLC-D011, compared to lonafarnib, reduced the expression of progerin but induced the expression of H3K9me3 and cyclin B1 in HGPS cells more effectively. HGPS patients-derived cells were treated with SLC-D011 (500 nM) or lonafarnib (500 nM) for 3 days. I Scheme of interaction between lamin A and progerin. SLC-D011 interrupts the interaction between lamin A and progerin through direct binding to the C-terminal region of progerin. “Con” and “untreated” mean vehicle (monoolein-based solution)-treated mouse group or vehicle (DMSO)-treated cells. TEXT PRINTED IN THE PICTURE: (C) D011: Kaplan-Meier survival curve in Lmna^G609G/G609G: Ave=25.2; Kaplan-Meier survival curve in Lmna^G609G/G609G: Max=26 DOUBTS OF THE COPYIST ABOUT THIS PICTURE: Panel C: Ave=25.2 / Max=26 are assigned to D011 only because they are printed beside the solid curve. No unit is printed with them; the x axis reads Age (weeks). / Panel C: Ave=16.8 / Max=18 are printed beside the dashed curve of the control (Con). They are left out because Con is not a substance.
Lamin A/C and progerin amounts in tissue samples including lung, liver, and kidney analysis of two Lmna^+/+, four untreated Lmna^G609G/+, and four D011-treated Lmna^G609G/+ mice were evaluated by western blotting. Proteins were extracted with RIPA lysis buffer supplemented with protease inhibitors. Tissues were sonicated and centrifuged at 15,000 rpm for 15 min at 4 °C. Protein concentration was determined by Coomassie-blue staining. Cellular lysates in SDS-containing sample buffer were inactivated by heating at 98 °C for 7 min. Proteins were loaded onto 8% SDS-PAGE gels and transferred to PVDF membranes. These membranes were blocked with 3% skimmed milk in TBS-T buffer for 1 h and incubated with primary antibodies including mouse monoclonal anti-progerin (1:100; sc-81611; Santa Cruz Biotechnology), mouse monoclonal anti-lamin A/C (1:500; MANLAC1; Developmental Studies Hybridoma Bank), and rabbit polyclonal anti-H3K9me3 (1;2000; Ab8898; Abcam) at 4°C overnight. Blots were then incubated with 1:10,000 goat anti-mouse (Pierce, Thermo Fisher Scientific) or 1:10,000 goat anti-rabbit (Pierce, Thermo Fisher Scientific) IgG (HRP conjugated) in 1% skimmed milk and washed with TBS-T buffer. Bands were developed using and Intron ECL detection system and quantified using Image J (National Institute of Health, NIH).
Fig. S10. […]

[3] = Lmna G609G/+ mice, oral 50 mg/kg daily for 8 weeks

## CC1(C)Oc2cc3oc(=O)ccc3cc2C[C@@H]1OC/C=C/c1ccccc1 [SLC-D011]
[1]
  Grip strength relative to LMNA +/+ (=1): 0.9456
[1]; LMNA +/+ = 100
  Force (%): 94.5577%
[2]; Kidney, Ave
  H3K9me3 intensity: 6.21 AU and 9.731 AU
  Progerin intensity: 4.42 AU and 7.581 AU
[2]; Kidney, individual replicate
  H3K9me3 intensity: 7.144 AU and 5.202 AU and 6.284 AU and 10.9311 AU and 8.4105 AU and 9.851 AU
  Progerin intensity: 5.843 AU and 4.429 AU and 2.988 AU and 9.2 AU and 12.7266 AU and 0.8173 AU
[2]; Liver, Ave
  H3K9me3 intensity: 4.595 AU and 7.491 AU
[2]; Liver, individual replicate
  H3K9me3 intensity: 4.833 AU and 4.0316 AU and 4.921 AU and 8.228 AU and 7.116 AU and 7.128 AU
  Progerin intensity: 1.2695 AU and 1.954 AU and 0.8023 AU and 0.5773 AU and 0.1521 AU and 0.4975 AU
[2]; [3]
  H3K9me3 level in tissues: increase of H3K9me3
  Progerin level in tissues: Obvious reduction of progerin
[2]; Lung, Ave
  Progerin intensity: 1.397 AU and 0.9832 AU
[2]; Lung, individual replicate
  H3K9me3 intensity: 2.3231 AU and 2.511 AU and 2.358 AU and 5.884 AU and 5.376 AU and 5.841 AU
  Progerin intensity: 2.376 AU and 1.606 AU and 0.2082 AU and 2.142 AU and 0.6098 AU and 0.1984 AU
